Test results from US20050164983A1, “Carboxyl-reduced derivatives of dermatan sulfate, preparation thereof, use thereof as a medicinal product and the pharmaceutical compositions containing them” (Aventis Pharma S.A., priority 2003, published 2005).

Experiments:
aggrecanase = experiment: Effect on the aggrecanase in synovial fluids or on preparations of recombinant ADAMTS protein (Agg1mut substrate, BC-3 ELISA); format: biochemical; conditions: for Estimated IC50: aggrecanase, substrate conversion
Description: Effect of the carboxyl-reduced derivatives according to the invention on the aggrecanase in synovial fluids or on preparations of recombinant ADAMTS protein.
The analysis is carried out on 96-well plates. Before the analysis, serial dilutions of the assay compounds are prepared in an aqueous solution.
In each well, a fixed volume of synovial fluid or aggrecanase activity generating a known increase, between 1.0 and 1.4 absorbance units (405 nm), under the conditions of the analysis, is mixed with 3 μl of solution of compound from the respective dilution step. Dulbecco's modified Eagle's medium (DMEM) is added to each well to give a final volume of 300 μl. The plate is then incubated for 1 hour at 37° C. in a carbon dioxide atmosphere.
Preparation of the analytical plate:
In a first step, the microplate is coated with 100 μl per well of a commercial goat anti-mouse IgG antibody for 1 hour at ambient temperature (5 μg/ml in a phosphate buffered saline solution, pH 7.4 [PBS buffer]). After washing with the PBS buffer containing 0.1% of Tween-20 (washing buffer), the wells are blocked by means of a step consisting of a one hour incubation with 100 μl per well of 5% bovine serum albumin in a PBS buffer containing 0.05% of Tween-20.
After another rinse of the analytical plate with the washing buffer, the complete set of mixtures originating from the preceding digestion is transferred to this plate, well by well, and incubated at ambient temperature for one hour. The plate is again washed as above. Next, 100 μl of the second antibody (anti-human IgG antibody labeled with peroxidase, 1:1000 in PBS containing 0.5% of BSA and 0.05% of Tween-20) are added to each well, with subsequent incubation at ambient temperature again for one hour. […] The measurement is carried out by means of the screen mode using detection at 405 nm relative to a reference filter (620 nm) with automatic readings at 5-second intervals. The development is stopped as soon as the maximum signal (405 nm) in the absorbance range of 1.0 to 1.4 is reached.

bovine factor Xa [1] = target: T1, bovine factor Xa (Bos taurus, UniProt P00743); experiment: Inhibition of factor Xa (chromogenic substrate S-2765, with human antithrombin III); format: biochemical; conditions: calibrated against Enoxaparin
T1 sequence (P01008 33-464 partner): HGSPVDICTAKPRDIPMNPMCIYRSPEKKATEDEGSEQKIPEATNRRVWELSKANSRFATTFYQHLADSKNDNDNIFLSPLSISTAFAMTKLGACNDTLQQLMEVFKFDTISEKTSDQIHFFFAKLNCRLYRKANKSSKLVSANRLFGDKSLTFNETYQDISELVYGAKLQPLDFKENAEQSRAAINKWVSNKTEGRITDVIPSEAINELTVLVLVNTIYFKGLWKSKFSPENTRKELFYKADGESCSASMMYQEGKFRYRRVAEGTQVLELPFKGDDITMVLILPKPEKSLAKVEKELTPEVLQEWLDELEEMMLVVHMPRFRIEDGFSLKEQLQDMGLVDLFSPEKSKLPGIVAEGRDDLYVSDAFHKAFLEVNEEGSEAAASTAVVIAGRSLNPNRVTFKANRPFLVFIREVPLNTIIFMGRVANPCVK
T1 sequence (P00743 234-492 limits assumed): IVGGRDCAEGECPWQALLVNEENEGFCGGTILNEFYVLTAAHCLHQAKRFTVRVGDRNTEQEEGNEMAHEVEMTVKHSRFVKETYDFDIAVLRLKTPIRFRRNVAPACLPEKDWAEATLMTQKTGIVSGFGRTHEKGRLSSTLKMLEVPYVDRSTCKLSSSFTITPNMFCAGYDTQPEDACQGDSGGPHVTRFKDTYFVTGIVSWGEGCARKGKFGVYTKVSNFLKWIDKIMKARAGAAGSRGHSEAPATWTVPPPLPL
Description: For the calibration, a standard sample of low molecular weight heparin (Enoxaparin) was used as reference.
The serial dilutions of the assay compound are prepared in a 0.046 M Tris buffer, pH 8.4, containing 0.15 M NaCl, 0.007 M EDTA, 0.1% of Tween 80 and 0.12 IU/ml of human antithrombin III. The samples of 50 μl of the respective dilutions are incubated with 50 μl of bovine factor Xa (13.6 U/ml) at 37° C. for 80 seconds. Next, 50 μl of chromogenic substrate, 1.1 mM S-2765, are added. The absorbance at 405 nm is measured in a photometer. The activity of the deblocked factor Xa is indicated by the emission of p-nitroaniline from the substrate.

[2] = target: T2, human neutrophil elastase (Homo sapiens, UniProt P08246); experiment: Inhibitory activity on human neutrophil elastase; format: biochemical; conditions: 15 min incubation
T2 construct: purchased Sigma E8140
T2 sequence (P08246 30-267): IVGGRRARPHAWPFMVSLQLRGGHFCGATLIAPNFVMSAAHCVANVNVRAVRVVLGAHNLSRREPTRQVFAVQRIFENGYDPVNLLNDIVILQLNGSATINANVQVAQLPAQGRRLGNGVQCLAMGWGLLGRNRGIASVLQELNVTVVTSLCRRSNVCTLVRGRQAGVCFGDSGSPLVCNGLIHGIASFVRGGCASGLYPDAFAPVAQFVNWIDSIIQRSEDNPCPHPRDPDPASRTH
Description: Effects of the Carboxyl-reduced Derivatives According to the Invention on Human Neutrophil Elastase
A commercially available enzyme (for example, human neutrophil elastase, Sigma No. E8140) is reconstituted in aliquots of 0.1 mg per vial with 0.276 ml of 50 mM sodium acetate buffer, pH 5.5, containing 200 mM NaCl (stock solution of the enzyme); 11 μl of this stock solution are diluted with 1.1 ml of the above HEPES buffer (enzyme assay solution).
The substrate solution is prepared by dissolving 118 mg of methoxy-succinyl-L-Ala-L-Ala-L-Pro-L-Val-p-nitro-anilide in 1 ml of DMSO (stock solution, for example Sigma No. M4765). In view of the application in the analysis, 9 μl of stock solution are then diluted in 1.19 ml of H2O.
Serial dilutions of the assay compounds are prepared in 100 mM of HEPES buffer containing 500 mM of NaCl. The analysis is carried out on colorless 96-well polystyrene microplates (for example, Corning Costar, No. 3695.
10 μl of enzyme assay solution are mixed with 10 μl of the respective solution of diluted compound and 10 μl of the substrate solution. After incubation for 15 min, the cleavage of the substrate is read as increase in absorbance at 405 nm.

bovine factor Xa [3] = target: T1, bovine factor Xa; conditions: reference low-molecular weight heparin used for calibration; cited from earlier work
[4] = conc. of glycosaminoglycan 0.0001 μg/ml
[5] = conc. of glycosaminoglycan 0.001 μg/ml
[6] = conc. of glycosaminoglycan 0.01 μg/ml
[7] = conc. of glycosaminoglycan 0.1 μg/ml

| Estimated IC50 (aggrecanase) [µg/mL] | % Conversion (aggrecanase; [4]) [%] | % Conversion (aggrecanase; [5]) [%] | % Conversion (aggrecanase; [6]) [%] | % Conversion (aggrecanase; [7]) [%] | % Conversion (aggrecanase; conc. of glycosaminoglycan 1.0 μg/ml) [%] | Anti-factor Xa activity (bovine factor Xa [1]) [U/mg] | IC50 [2] [µg/mL] | Substance | Anti-factor Xa activity of the reference standard (bovine factor Xa [3]) [U/mg] |
| --- | --- | --- | --- | --- | --- | --- | --- | --- | --- |
| 0.26 | 100.0 | 96.4 | 84.3 | 70.2 | 36.1 | 0 | 10.0 | 6-O-sulfated, Carboxyl-reduced Dermatan Sulfate Sodium Salt [Example 5] |  |
|  |  |  |  |  |  |  |  | Enoxaparin | 100 |
| 0.007 | 100.0 | 93.4 | 27.4 | 18.0 |  | 1.1 | 0.11 | Persulfated, Carboxyl-reduced Dermatan Sulfate Sodium Salt [Example 4] |  |

| Substance | Estimated IC50 (aggrecanase) [µg/mL] | % Conversion (aggrecanase; [4]) [%] | % Conversion (aggrecanase; [5]) [%] | % Conversion (aggrecanase; [6]) [%] | % Conversion (aggrecanase; [7]) [%] | % Conversion (aggrecanase; conc. of glycosaminoglycan 1.0 μg/ml) [%] | Anti-factor Xa activity (bovine factor Xa [1]) [U/mg] | IC50 [2] [µg/mL] | Anti-factor Xa activity of the reference standard (bovine factor Xa [3]) [U/mg] |
| --- | --- | --- | --- | --- | --- | --- | --- | --- | --- |
| Carboxyl-reduced Dermatan Sulfate Sodium Salt [Example 1] | ~7.9 |  |  |  |  |  |  |  |  |
